Experimental data taken from patent US11179347B2, “Hydrocarbon oil for a therapeutic use” (TOTAL MARKETING SERVICES, priority 2017, dated 2021).
Marks after values point to notes of the source that are not given here.

Tests used:
HaCaT cells [1] = test: Production of reactive oxygen species in HaCat cells incubated with oil then preservative (POE or MIT); type: cell-based
Description: Preservatives, used as an additive in pharmaceutical compositions, were evaluated. The preservatives evaluated are phenoxyethanol (POE) and methylisothiazolinone (MIT).
For this test, the HaCat cells are incubated with the oils A or B (for example for 15 minutes for the test with POE) then with the preservative POE or MIT (for example for 30 minutes with a solution of phenoxyethanol at 250 μg/mL).

HaCaT cells [2] = test: Condensation of the chromatin, HOECHST 33342 test, HaCat cells with or without benzalkonium chloride; type: cell-based; details: one hour with oil or CM, then 20 minutes benzalkonium chloride (BAC) 8 ppm by weight
Description: The following standards and methods were used to measure the properties hereinabove: • flash point: EN ISO 2719 • density at 15° C.: EN ISO 1185 • viscosity at 40° C.: EN ISO 3104 • aniline point: EN ISO 2977 • boiling point: ASTM D86 • biodegradability: OECD method 306 • refractive index at 20° C.: ASTM D 1218 • vapour pressure: calculated according to methods well known to those skilled in the art Tests on the Cellular Effects Preparation of the Tests: • Preparation of the microplates: 24 hours before the incubation with the oils A and B, the HaCaT cells are inoculated with a cell density of 100,000 cells/ml in 96-well microplates (Corning). The microplates are then placed in the incubator at 37° C. In a microplate, each condition was tested at least three times. Each experiment was carried out at least three times independently in order to validate the reproducibility of the results and to carry out statistical analyses. • Incubation of cells with the oils A or B: two durations of incubation were selected for the products to be tested pure: an incubation for fifteen minutes and an incubation for one hour. […]
The measurement of the condensation of the chromatin expressed as a percentage relative to the culture medium (CM) is indicated in table 3 hereinbelow.

Compound: Cn1sccc1=O [MIT, methylisothiazolinone]
- Production of reactive oxygen species (% relative to the CM) (HaCaT cells [1]; with preservative methylisothiazolinone (MIT), after incubation with oil or CM): 135 % relative to the CM

Compound: benzalkonium chloride [CM + BAC]
- Measurement of the condensation of the chromatin (% relative to the CM) (HaCaT cells [2]): 138*** % relative to the CM

Compound: phenoxyethanol [CM + POE]
- Production of reactive oxygen species (% relative to the CM) (HaCaT cells [1]; with preservative phenoxyethanol (POE) 250 μg/mL 30 minutes, after 15 minutes with oil or CM): 132 % relative to the CM
